# Target: T1, B1 bradykinin receptor (Homo sapiens, UniProt P46663)
# T1 sequence (P46663 whole entry): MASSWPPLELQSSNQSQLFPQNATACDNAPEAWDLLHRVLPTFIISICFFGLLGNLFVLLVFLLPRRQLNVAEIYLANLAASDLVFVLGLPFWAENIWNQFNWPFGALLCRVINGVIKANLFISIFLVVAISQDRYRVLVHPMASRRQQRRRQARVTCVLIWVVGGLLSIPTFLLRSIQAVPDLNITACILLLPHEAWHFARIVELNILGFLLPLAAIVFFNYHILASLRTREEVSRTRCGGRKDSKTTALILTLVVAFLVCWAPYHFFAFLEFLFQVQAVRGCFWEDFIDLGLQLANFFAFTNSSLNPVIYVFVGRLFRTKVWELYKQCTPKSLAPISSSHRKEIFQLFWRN
# Experiment: Displacement of [3H]DAKA from human bradykinin B1 receptor in IL1-beta stimulated IMR90 cells
# Type: cell-based, IMR-90
row,Ki,Structure (SMILES)
1,73 nM,COC(=O)[C@@H](NC(=O)c1n[nH]c(NC(=O)c2ccccc2Cl)c1Br)c1ccccc1
2,120 nM,O=C(Nc1[nH]nc(C(=O)NCCc2ccncc2)c1Br)c1ccccc1Cl
3,200 nM,O=C(Nc1[nH]nc(C(=O)Nc2ccccc2)c1Br)c1ccccc1Cl

# Target: T1, B1 bradykinin receptor
# Experiment: Antagonist activity at human bradykinin B1 receptor in IL1-beta stimulated IMR90 cells by FLIPR assay
# Type: functional, cell-based, IMR-90
row,Structure (SMILES),IC50
1,Cn1nc(NC(=O)c2ccccc2Cl)c(Br)c1C(=O)NCCC1CCN(c2ccncc2)CC1,640 nM
2,O=C(Nc1ccccc1)c1cc(NC(=O)c2ccccc2Cl)[nH]n1,> 10000 nM
3,Cc1c(C(=O)Nc2ccccc2)n[nH]c1NC(=O)c1ccccc1Cl,2000 nM
4,NC(=O)[C@@H](NC(=O)c1n[nH]c(NC(=O)c2ccccc2Cl)c1Br)c1ccccc1,1700 nM
5,Cc1c(C(=O)NCCC2CCN(c3ccncc3)CC2)n[nH]c1NC(=O)c1ccccc1Cl,9.3 nM
6,CC(=O)Nc1[nH]nc(C(=O)NC2N=C(c3ccccc3)c3ccccc3NC2=O)c1Br (configuration not stated),> 10000 nM
7,COC(=O)[C@@H](NC(=O)c1n[nH]c(NC(=O)c2ccccc2Cl)c1Br)c1ccccc1,290 nM
8,Cn1nc(C(=O)NCCC2CCN(c3ccncc3)CC2)c(Br)c1NC(=O)c1ccccc1Cl,44 nM
9,O=C(Nc1[nH]nc(C(=O)NCCc2ccncc2)c1Br)c1ccccc1Cl,490 nM
10,Nc1cccc(N2CCC(CNC(=O)c3n[nH]c(NC(=O)c4ccccc4Cl)c3Br)CC2)n1,13 nM
11,COc1ccc(-n2nc(C(=O)NCCC3CCN(c4ccncc4)CC3)c(Br)c2NC(=O)c2ccccc2Cl)cc1,1200 nM
12,CN1CCC(N2CCC(CCNC(=O)c3nn(-c4ccccc4)c(NC(=O)c4ccccc4Cl)c3Br)CC2)CC1,320 nM
13,CN(C)CCn1nc(C(=O)NCCC2CCN(c3ccncc3)CC2)c(Br)c1NC(=O)c1ccccc1Cl,1600 nM
14,CN1CCC(CCNC(=O)c2n[nH]c(NC(=O)c3ccccc3Cl)c2Br)CC1,86 nM
15,O=C(Nc1c(Br)c(C(=O)N[C@@H]2N=C(c3ccccc3)c3ccccc3NC2=O)nn1-c1ccccc1)c1ccccc1Cl,> 10000 nM
16,O=C(Nc1[nH]nc(C(=O)NC2N=C(c3ccccc3)c3ccccc3NC2=O)c1Br)c1ccccc1 (configuration not stated),49 nM
17,O=C(Nc1[nH]nc(C(=O)Nc2ccc(CCC3=NCCN3)cc2)c1Br)c1ccccc1Cl,0.075 nM
18,O=C(Nc1[nH]nc(C(=O)NC2N=C(c3ccccc3)c3ccccc3NC2=O)c1Br)c1ccccc1F (configuration not stated),10 nM
19,CC(C)C(=O)Nc1[nH]nc(C(=O)NC2N=C(c3ccccc3)c3ccccc3NC2=O)c1Br (configuration not stated),650 nM
20,O=C(Nc1[nH]nc(C(=O)Nc2ccccc2)c1Br)c1ccccc1Cl,530 nM
21,O=C(Nc1[nH]nc(C(=O)NCCC2CCN(c3ccncc3)CC2)c1Br)c1ccccc1Cl,3 nM
22,O=C(Nc1[nH]nc(C(=O)N[C@@H]2CN3CCC2CC3)c1Br)c1ccccc1Cl,60 nM
23,O=C(Nc1[nH]nc(C(=O)NC2N=C(c3ccccc3)c3ccccc3NC2=O)c1Br)c1ccccc1Cl (racemic),5.2 nM

# Now from value to molecule:
row,IC50,Structure (SMILES)
1,12 nM,O=C(Nc1c(Br)c(C(=O)NCCC2CCN(c3ccncc3)CC2)nn1-c1ccccn1)c1ccccc1Cl
2,23 nM,O=C(Nc1[nH]nc(C(=O)NCCC2CCN(c3ccncc3)CC2)c1F)c1ccccc1Cl
3,> 10000 nM,O=C(Nc1c(Br)c(C(=O)N[C@@H]2CCCCNC2=O)nn1-c1ccccc1)c1ccccc1Cl
4,3200 nM,CC(C)(C)c1ccc(-c2n[nH]c(NC(=O)c3ccccc3Cl)c2Br)cc1
5,82 nM,CC[C@@H](NC(=O)c1n[nH]c(NC(=O)c2ccccc2Cl)c1Br)C(=O)N(C)C
6,290 nM,O=C(Nc1[nH]nc(C(=O)N[C@@H]2CCCCNC2=O)c1Br)c1ccccc1Cl
7,210 nM,C[C@@H](NC(=O)c1n[nH]c(NC(=O)c2ccccc2Cl)c1Br)c1ccccc1
8,71 nM,O=C(Nc1c(Br)c(C(=O)NCCC2CCN(c3ccncc3)CC2)nn1Cc1ccccc1)c1ccccc1Cl
9,3.5 nM,O=C(Nc1c(Br)c(C(=O)NCCC2CCN(c3ccncc3)CC2)nn1-c1ccccc1)c1ccccc1Cl
10,200 nM,O=C(NCCC1CCN(c2ccncc2)CC1)c1cc(NC(=O)c2ccccc2Cl)[nH]n1
11,3.9 nM,O=C(Nc1[nH]nc(C(=O)NCCC2CCN(c3ccncc3)CC2)c1Cl)c1ccccc1Cl
12,16 nM,C[C@@H](NC(=O)c1n[nH]c(NC(=O)c2ccccc2Cl)c1Br)C(=O)N1CCCCC1
13,700 nM,O=C(Nc1[nH]nc(C(=O)Nc2ccccc2)c1Cl)c1ccccc1Cl
14,560 nM,O=C(Nc1[nH]nc(C(=O)Nc2ccncc2)c1Br)c1ccccc1Cl
15,1.8 nM,CN1CCC(N2CCC(CCNC(=O)c3n[nH]c(NC(=O)c4ccccc4Cl)c3Br)CC2)CC1
16,1100 nM,Cc1nc(-c2n[nH]c(NC(=O)c3ccccc3Cl)c2Br)cs1
